Data reported in paper PMC3717777 (Toxins, 2013).
Entries after “also recorded” stand apart in the source; their conditions may differ. Like-named read-outs stand apart in the source and are kept apart here.

Legend:
(human) albumin = conditions: ochratoxin A to (human) albumin, ref [45], cited from earlier work
[1] = read-out: binding constant KD, aflatoxin B2; cited from earlier work
[2] = read-out: binding constant KD, aflatoxin B1; cited from earlier work
[3] = SPR (Biacore 3000) binding of ochratoxin A-BSA to immobilised peptide or antibody; conditions: for Kd: Biacore 3000, CM5 chip, peptide immobilised by amine coupling, ochratoxin A-BSA 0.01–100 mg L^−1, HBS-EP pH 7.4, 25 °C, 1:1 Langmuir model, estimated; for on and off rates: Biacore 3000, ochratoxin A-BSA over immobilised ligand; for on and off rates / binding affinity (in words): HBS-EP pH 7.4, 25 °C; for binding affinity (in words): Biacore 3000, ochratoxin A-BSA
Source text: (§1) To determine affinities for the peptide binding interaction, the peptides were immobilized on two adjacent flow cells onto a CM5 Biacore chip to a level of 251 RU (octapeptide) and 227 RU (13-mer peptide). This was in order to study the binding interaction between the peptides and ochratoxin A using a Biacore 3000. A commercial ochratoxin A-BSA conjugate was used as the analyte to obtain a significant signal response for a binding event. Initially, one saturating concentration of ochratoxin A-BSA conjugate (100 mg L^−1) was injected over each immobilized peptide ligand to confirm binding (Figure 4).
To establish the affinity of the interaction, decreasing ochratoxin A-BSA concentrations were injected onto the immobilized peptides surfaces (Figure 5).
The binding interaction analysis of the peptide receptor with ochratoxin A was carried out on a CM5 (carboxymethylated dextran) sensor chip at 25 °C. HBS-EP (0.01 M HEPES pH 7.4, 0.15 M NaCl, 3 mM EDTA, 0.005% Surfactant P20) was used as the running and dilution buffer. Peptides (100 mg L^−1 in 10 mM acetate buffer, pH 4.5) were immobilised using 0.4 M N-(3-dimethylaminopropyl)-N'-ethylcarbodiimide (EDC) and 0.1 M N-hydroxysuccinimide (NHS), applying amine coupling chemistry. In brief, a 1:1 mixture of NHS and EDC was injected as 5 μL min^−1 flow rate for 7 min, followed by injection of 75 µL peptide ligand (5 µL min^−1) for 15 min and blocking of residual binding sites with 1 M Ethanolamine, pH 8.3 (35 µL). To establish binding kinetics, various concentrations of ochratoxin A-BSA conjugate (0.01–100 mg L^−1, 60 µL in HBS-EP pH 7.4) were injected at 5 µL min^−1 over each immobilised peptide surface. BSA alone was injected as non-specific analyte control. Dissociation was monitored during 10 min without dissociating agents (flowing only running buffer). The kinetic parameters of the binding reactions were determined using BIAevaluation 3.2 software.

BSA = test: SPR (Biacore 3000) non-specific binding control with BSA alone; conditions: immobilised peptide, BSA alone 100 mg L^−1
Source text: as §1
Immobilization methods, especially via amine coupling, can reduce the activity of the immobilized molecule and, thus, have reduced binding capacity, which can be substantially different from the theoretical binding capacity. This is a common and known problem in binding interaction analysis. […]
The binding interaction analysis of the peptide receptor with ochratoxin A was carried out on a CM5 (carboxymethylated dextran) sensor chip at 25 °C. […] Dissociation was monitored during 10 min without dissociating agents (flowing only running buffer). The kinetic parameters of the binding reactions were determined using BIAevaluation 3.2 software.

[4] = Solid phase microtitre plate binding assay with ochratoxin A-HRP; conditions: ochratoxin A-HRP serial dilutions, PBS pH 7.4, 1.5 h, room temperature, A 450 nm; for binding of ochratoxin A-HRP, amine-coupled peptide: amine coupling (NHS/EDC); for binding of ochratoxin A-HRP, thiol-coupled peptide: thiol coupling (SPDP)
Source text: Solid phase binding assay provides a platform to test the binding capacity of the designed peptides to ochratoxin A in vitro. Each peptide sequence was immobilized to the surface of a functionally modified (R2-NH) microtitre plate via either amine coupling using N-hydroxysuccinimide (NHS)/N-(3-dimethylaminopropyl)-N'-ethylcarbodiimide (EDC) coupling chemistry or thiol coupling using a heterobifunctional crosslinker (N-Succinimidyl 3-(2-pyridyldithio) propionate (SPDP)) employing the terminal cysteine residues of the peptide sequences to allow for site-directed surface attachment. Enzyme-labelled ochratoxin A-HRP was added in a concentration-dependent manner to the immobilized peptides, and the absorbance signal (blank subtracted) was compared for both peptides and immobilization techniques, as shown in Figure 3.
To test the initial binding of the peptides with ochratoxin A, the peptides were immobilized to a (NH)-functionally modified polystyrene microtitre plate via: (1) amine-coupling using a NHS/EDC linker and (2) thiol-coupling using SPDP, a hetero-bifunctional cross-linker reagent with amine and sulfhydryl groups.
Amine coupling was performed as follows: 100 mg L^−1 of each peptide solution in 10 mM carbonate buffer pH 9.6 was incubated on the NH-wells for 30 min, then 200 mM EDC and 50 mM NHS (1:1 v/v) were added and incubated for one hour. The plates were washed using PBST and blocked using 0.1 M ethanolamine for 30 min. Thiol coupling was performed via the immobilization of 1.5 mg mL^−1 SPDP in phosphate buffer (PBS) pH 7.4 incubated for 30 min at room temperature. The peptides were added at 100 mg L^−1 in a phosphate buffer pH 8.0 and incubated for another two hours at room temperature. The plates were washed using PBST and blocked for one hour using 1 g L^−1 cysteine in 1 M NaCl and 0.1 M sodium acetate, pH 4.0.
The binding of ochratoxin A-HRP conjugate in phosphate buffer pH 7.4 was performed at decreasing serial dilutions and incubated with the immobilized peptides for 1.5 h. The zero reference was determined with ochratoxin-HRP alone on 0.1 M ethanolamine blocked wells without immobilized peptide. All incubations were performed at room temperature. Detection was performed, after washing the microtiter plates using PBST, with the chromogenic HRP-substrate TMB in ready-made solution containing hydrogen peroxide. The absorbance was read after 20 min at 450 nm.

[5] = Water solubility of synthesized peptides; format: physicochemical
[6] = combinatorial peptide-phage display library; cited from earlier work

Molecule | Kd [3] | on and off rates [3] | binding affinity (in words) [3] | non-specific binding to unconjugated BSA (BSA) | binding of ochratoxin A-HRP, amine-coupled peptide [4] | binding of ochratoxin A-HRP, thiol-coupled peptide [4] | water solubility [5] | also measured
C[C@@H]1Cc2c(Cl)cc(C(=O)N[C@@H](Cc3ccccc3)C(=O)O)c(O)c2C(=O)O1 [ochratoxin A] |  |  |  |  |  |  |  | Kd ((human) albumin; high affinity binding sites, read-out: KD, high affinity binding site): ~0.019 µM; Kd ((human) albumin; weak affinity sites, read-out: KD, weak affinity site): ~1 µM
Leu-Leu-Ala-Arg-NH2 |  |  |  |  |  |  |  | Kd [1]: ~3.4 µM; Kd [2]: ~8.3 µM
N'-Cys-Ser-Ile-Val-Glu-Asp-Gly-Lys-C' [octapeptide] | 11.8 µM | fast on and off rates | weak affinity interactions; also recorded: weak binding affinity | no non-specific binding | ochratoxin A-HRP binds | much higher binding signals | water soluble | 
N'-Gly-Pro-Ala-Gly-Ile-Asp-Gly-Pro-Ala-Gly-Ile-Arg-Cys-C' [13-mer peptide] | 15.7 µM | fast on and off rates; also recorded: faster on and off rates | weak binding affinity | no non-specific binding | decreased | good binding capacity | water soluble | binding affinity (in words) ([3]; listed as 13-mer): weak affinity interactions
N'-Ser-Asn-Leu-His-Pro-Lys-C' |  |  |  |  |  |  |  | Kd [6]: ~2.9 µM
